Laboratory results reported in patent publication US20110152228A1, “SPRAYABLE PHARMACEUTICAL COMPOSITIONS COMPRISING A CORTICOID AND AN OILY PHASE” (Galderma, S.A., priority 2005, published 2011).

Legend:
[1] = Maximum solubility of clobetasol propionate in solvent oils, assessed visually (clarity/cloudiness); type: physicochemical
Protocol: (§1) The maximum solubility of clobetasol propionate was studied in various solvent oils according to the invention, in order to allow the choice most suitable for the concentration of active agent to be solubilized.
The solubility can also be assessed visually. Thus, minute proportions of the active agent are gradually added to the solvent oil with stirring. Visual observation of the clarity of the solution is carried out.

[2] = Maximum solubility of clobetasol propionate in solvent oils, UV assaying method; type: physicochemical
Protocol: as §1
It is measured by the UV assaying method.
Saturated solutions are prepared according to the following protocol:
0.1% of clobetasol propionate is added to the oily excipient.
The entire mixture is stirred overnight and then left for two hours without stirring.
The solutions for UV-assaying are then prepared by taking the supernatant 0.1 g of this saturated solution is weighed into a 100 ml volumetric flask and then made up to 100 ml with absolute ethanol. The assaying makes it possible to obtain data for maximum solubility of the active agent in the solvent oil under consideration.

- Visual solubility ([1]; solvent: Caprylic/capric triglycerides, maximum solubility): 0.25%
- Visual solubility ([1]; solvent: Dioctyl ether): insoluble
- Visual solubility ([1]; solvent: Isopropyl palmitate, maximum solubility): 0.14%
- Visual solubility ([1]; solvent: Octyldodecanol, maximum solubility): 0.16%
- UV Solubility at 266 nm ([2]; solvent: Cetearyl isononanoate): 0.16%
- UV Solubility at 266 nm ([2]; solvent: Dioctyl ether): 0.12%
- UV Solubility at 266 nm ([2]; solvent: Ethyl oleate): 0.79%
- UV Solubility at 266 nm ([2]; solvent: Isopropyl palmitate): 0.17%
- UV Solubility at 266 nm ([2]; solvent: Oleic acid): 0.45%
- UV Solubility at 266 nm ([2]; solvent: Oleyl alcohol): 0.86%
Compound: CCC(=O)O[C@]1(C(=O)CCl)[C@@H](C)C[C@H]2[C@@H]3CCC4=CC(=O)C=C[C@]4(C)[C@@]3(F)[C@@H](O)C[C@@]21C [clobetasol propionate]
